US5079150A, “High sensitivity detection of peroxidase activity” (Becton, Dickinson and Company, priority 1988, dated 1992)

Columns and labels:
[1] = target: T1, HRP conjugated anti RSV monoclonal antibody (Armoracia rusticana, UniProt P00433); assay: Sandwich immunoassay for RSV on IMMUNODYNE nylon membrane, HRP-labelled antibody, colored spot read with densitometer; type: biochemical, Horseradish; conditions: for intensity of the colored spot (color density): substrate 2 mg/mL
T1 sequence (P00433 31-338 limits assumed): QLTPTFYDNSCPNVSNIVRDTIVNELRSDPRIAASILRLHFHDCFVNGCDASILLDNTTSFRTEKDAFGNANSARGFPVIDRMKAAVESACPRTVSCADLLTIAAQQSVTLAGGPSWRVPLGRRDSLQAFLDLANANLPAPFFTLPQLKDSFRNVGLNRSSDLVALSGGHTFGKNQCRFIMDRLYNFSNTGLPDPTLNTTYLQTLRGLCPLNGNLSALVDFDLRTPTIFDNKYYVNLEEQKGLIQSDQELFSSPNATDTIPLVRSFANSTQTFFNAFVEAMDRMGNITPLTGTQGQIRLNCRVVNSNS
Procedure: Ten μg of anti RSV antibody in 2 μl of carbonate buffer (50 mM, pH 9.5) were applied to an IMMUNODYNE™ nylon membrane with a micropipette. The membrane was incubated with a TRIS buffered solution of casein to block the remaining sites, and dried. The membrane was assembled into a device which allows liquids to be passed through the membrane and into an absorbent pad. Serial dilutions of a 300 ng stock of RSV infected HEp-2 cells were prepared in a buffer containing TRIS, sodium chloride, EDTA and a detergent. 150 μl of this material was passed through the membrane. Another antibody coated membrane was treated with 300 ng of uninfected cells as a control.
The membranes were washed with TRIS buffered saline (TBS) and incubated with HRP conjugated anti RSV monoclonal antibody in TRIS containing casein. After two washings with TBS buffer, the membranes were treated with citrate/phosphate buffered (pH 5.0) solutions of DAT and DAB (2 mg/mL) containing hydrogen peroxide. After a five minute incubation, the enzymatic reaction was stopped by the addition of TBS, and the intensity of the colored spots was compared using a densitometer (Model 183, Gretag Ltd., CH-8105 Regensdorf, Switzerland). The background control substracted results of this experiment are presented in Table 1 in arbitrary units of color density.

[2] = target: T2, Horseradish peroxidase (Armoracia rusticana, UniProt P00433); assay: Comparison of substrates for HRP detection on membranes, reflectance densitometer; type: biochemical; conditions: substrate 2 mg/mL, approximately three minutes
T2 sequence (P00433 31-353): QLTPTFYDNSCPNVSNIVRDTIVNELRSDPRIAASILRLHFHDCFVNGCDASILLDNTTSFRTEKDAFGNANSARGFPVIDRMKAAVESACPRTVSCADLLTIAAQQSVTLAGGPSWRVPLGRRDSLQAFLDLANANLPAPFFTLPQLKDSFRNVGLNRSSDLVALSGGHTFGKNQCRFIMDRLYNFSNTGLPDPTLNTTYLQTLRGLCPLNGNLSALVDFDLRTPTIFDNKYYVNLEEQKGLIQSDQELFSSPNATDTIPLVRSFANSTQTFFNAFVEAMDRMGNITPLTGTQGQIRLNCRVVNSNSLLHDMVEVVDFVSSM
Procedure: Horseradish peroxidase was diluted serially in 10-fold steps in a buffer containing 51 mM phosphate, 24 mM citrate, pH 5.0. Spot volumes of 1 μL of each stock were applied to either nitrocellulose (0.45 micron, Schleicher and Schuell) or IMMUNODYNE™ nylon immunoaffinity membrane (5 micron, Pall). The membranes were allowed to air dry and then immersed in filtered substrate solutions containing 2 mg/mL of substrate compound and 0.68 μL/mL of 30% hydrogen peroxide in citrate/phosphate buffer. The reaction was quenched after approximately three minutes with a water rinse. The colored spots were quantitated with a reflectance densitometer (Gretag model 183). The results are presented in Table II in arbitrary units of color density.

[3] = 11 ng of infected cells, pH 5.0, five minute incubation
[4] = 33 ng of infected cells, pH 5.0, five minute incubation
[5] = 100 ng of infected cells, pH 5.0, five minute incubation
[6] = 300 ng of RSV infected HEp-2 cells, pH 5.0, hydrogen peroxide, five minute incubation, background control subtracted
[7] = Control: 300 ng of uninfected cells, pH 5.0, five minute incubation
[8] = IMMUNODYNE nylon membrane, amount of HRP 30 pg
[9] = IMMUNODYNE nylon membrane, amount of HRP 0.3 ng
[10] = IMMUNODYNE nylon membrane, amount of HRP 3 ng
[11] = IMMUNODYNE nylon membrane, amount of HRP 30 ng
[12] = IMMUNODYNE nylon membrane, amount of HRP 0.3 mg
[13] = Nitrocellulose membrane, amount of HRP 30 pg
[14] = Nitrocellulose membrane, amount of HRP 0.3 ng
[15] = Nitrocellulose membrane, amount of HRP 3 ng
[16] = Nitrocellulose membrane, amount of HRP 30 ng
[17] = Nitrocellulose membrane, amount of HRP 0.3 mg

Row | SMILES | intensity of the colored spot (color density) [1, 3] | intensity of the colored spot (color density) [1, 4] | intensity of the colored spot (color density) [1, 5] | intensity of the colored spot (color density) [1, 6] | color reading on the densitometer, in words ([1]; 300 ng of infected cells) | intensity of the colored spot (color density) [1, 7] | color density of spot [2, 8] | color density of spot [2, 9] | color density of spot [2, 10] | color density of spot [2, 11] | color density of spot [2, 12] | color density of spot [2, 13] | color density of spot [2, 14] | color density of spot [2, 15] | color density of spot [2, 16] | color density of spot [2, 17] | amount of infected cells down to which stable, deeply colored spots well above control values were obtained ([1]; RSV infected HEp-2 cells)
1 | Nc1ccc(-c2ccc(N)c(N)c2)cc1N [DAB, 3,3'-diaminobenzidine, reference compound] | .04 arbitrary units | .03 arbitrary units | .04 arbitrary units | .07 arbitrary units | barely perceptible color reading | 0 arbitrary units | .00 arbitrary units | .04 arbitrary units | .22 arbitrary units | .78 arbitrary units | 1.67 arbitrary units | .00 arbitrary units | .04 arbitrary units | .22 arbitrary units | .43 arbitrary units | 1.03 arbitrary units | –
2 | Cc1cc(N)c(N)cc1C [4,5-Dimethyl-1,2-phenylenediamine] | – | – | – | – | – | – | .00 arbitrary units | .05 arbitrary units | .22 arbitrary units | .50 arbitrary units | .53 arbitrary units | .03 arbitrary units | .11 arbitrary units | .22 arbitrary units | .43 arbitrary units | .55 arbitrary units | –
3 | Cc1ccc(N)c(N)c1 [DAT, 3,4 Diaminotoluene] | .28 arbitrary units | .37 arbitrary units | .57 arbitrary units | .82 arbitrary units | – | .24 arbitrary units | .04 arbitrary units | .21 arbitrary units | .54 arbitrary units | .85 arbitrary units | .99 arbitrary units | .03 arbitrary units | .09 arbitrary units | .10 arbitrary units | .28 arbitrary units | .38 arbitrary units | 33 ng
4 | Nc1ccc(Cl)cc1N [4-Chloro-1,2-phenylenediamine] | – | – | – | – | – | – | .06 arbitrary units | .12 arbitrary units | .68 arbitrary units | 1.89 arbitrary units | 2.24 arbitrary units | .09 arbitrary units | .26 arbitrary units | .55 arbitrary units | .87 arbitrary units | 1.25 arbitrary units | –
5 | Cc1cc(-c2cc(C)c(N)c(C)c2)cc(C)c1N [TMB, 3,3',5,5'-tetramethylbenzidine, reference compound] | – | – | – | – | – | – | .00 arbitrary units | .00 arbitrary units | .11 arbitrary units | .19 arbitrary units | .23 arbitrary units | .01 arbitrary units | .04 arbitrary units | .08 arbitrary units | .09 arbitrary units | .09 arbitrary units | –
6 | Nc1cc(Cl)c(Cl)cc1N [4,5-Dichloro-1,2-phenylenediamine] | – | – | – | – | – | – | .00 arbitrary units | .00 arbitrary units | .10 arbitrary units | .41 arbitrary units | .48 arbitrary units | .02 arbitrary units | .10 arbitrary units | .31 arbitrary units | .43 arbitrary units | .60 arbitrary units | –
